This is an account of results in PMC5296225 (European journal of medicinal chemistry, 2016).

The target of experiment [1] is T1, SAP (saporin L3) (Saponaria officinalis, UniProt Q2QEH4). As to the kind of experiment: Competitive inhibition of saporin L3 with stem-loop RNA A10. The class given is biochemical.
The subject of another experiment is Saporin L3 (SAP). It is filed as biochemical, Saponaria officinalus.
A further experiment has as its system SAP and SAP-A14C. Briefly: Inhibition of SAP hydrolysis of yeast tRNA and rabbit rRNA. The class given is biochemical, Saponaria officinalus. Conditions: rabbit 80S ribosome 100 nM or yeast tRNA 1.0 mg/mL; 10 min preincubation.
The target in experiment [2] is T1, SAP (saporin L3). Briefly: Ki* quoted in Table 1 from ref 19. It is filed as biochemical. To be noted: read-out: Inhibition constant Ki* (nM), value taken from Schramm et al. [19]; cited from earlier work.

T1 sequence (Q2QEH4 22-280 limits assumed): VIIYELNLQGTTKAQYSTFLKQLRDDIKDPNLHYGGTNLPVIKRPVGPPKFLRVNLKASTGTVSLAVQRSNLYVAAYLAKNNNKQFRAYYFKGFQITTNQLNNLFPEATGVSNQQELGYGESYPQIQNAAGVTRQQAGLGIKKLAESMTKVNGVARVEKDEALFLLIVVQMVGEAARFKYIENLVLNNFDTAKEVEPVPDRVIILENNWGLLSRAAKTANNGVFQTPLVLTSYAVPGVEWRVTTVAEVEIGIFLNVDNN

The term Ki denotes a dissociation constant, usually derived from enzyme kinetics or from competition with a known ligand. With `CO[C@@H]1[C@H](O)[C@@H](COP(=O)(O)O[C@H]2CN(Cc3c[nH]c4c(N)ncnc34)C[C@@H]2COP(=O)(O)O[C@H]2[C@@H](OC)[C@H](n3cnc4c(=O)[nH]c(N)nc43)O[C@@H]2CO)O[C@H]1n1cnc2c(=O)[nH]c(N)nc21` [compound 32, GpDIApG (2'-O-methyl guanosines)], on SAP (saporin L3) [1], affinity was put at a Ki of 0.033 ± 0.0017 µM.
Take GpGpDIApPD [Compound 41]: the “inhibition of SAP (in words)” value with Saporin L3 (SAP) is on record as “weak inhibitors”.
As for PDpApGpPD [reference compound], the affinity at Saporin L3 (SAP) (RNA A10 substrate, slow-onset dissociation constant), expressed as Ki, was 16.1 µM.
In the case of PDpDIApGpPD [Compound 2], the “inhibition of hydrolysis of yeast tRNA and rabbit rRNA by SAP and SAP-A14C” value in the experiment on SAP and SAP-A14C was “inhibits”.
In the case of PDpGpDIApPD [Compound 39], the “inhibition of SAP (in words)” value with Saporin L3 (SAP) is given as “weak inhibitors”.
With PDpHomoSerpGpPD [Compound 52], in the experiment on Saporin L3 (SAP), the “inhibition of SAP (in words)” value is “good inhibitors”.
Consider “catalytically inactive substrate analogue PDpApGpPD (adenosine in place of DIA; PD = propanediol)”, for which, on SAP (saporin L3) [1] (read-out: Inhibition constant Ki*), the Ki stood at 16 µM.
“serinol analogue of PDpDIApGpPD (Ser = serinol; PD = propanediol) [PDpSerpGpPD]”: the Ki at SAP (saporin L3) [2] was 43.2 ± 1.1 nM.
